Laboratory results reported in EP4467141A1, “PYRAZOLO-QUINOLINES AS SELECTIVE INHIBITORS OF GENOTOXIC STRESS-INDUCED IKK/NF- KB PATHWAYS FOR CANCER THERAPY” (Max-Delbrück-Centrum für Molekulare Medizin in der …, priority 2023, dated 2024).

How the values were obtained:
Experiment in all cases: Kinase panel study
Assay type in all cases: biochemical
Details in all cases: read-out: Percentage of inhibition; for inhibition at 1 µM: 1000nM; for inhibition at 10 µM: 10000nM
GRK4 = molecular target: T1, GRK4 (Homo sapiens, UniProt P32298)
T1 construct: purchased Thermo Fisher Scientific
How it was run: (§1)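 A commercial kinase profiling service ran the assays according to its ZLyte or Adapta standard protocols. Compound was present at 10 µM or 1 µM, and kinase activity loss was expressed as percent inhibition.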

TBK1 = molecular target: T2, TBK1 (Homo sapiens, UniProt Q9UHD2)
T2 construct: purchased Thermo Fisher Scientific
T2 sequence (Q9UHD2 1-729): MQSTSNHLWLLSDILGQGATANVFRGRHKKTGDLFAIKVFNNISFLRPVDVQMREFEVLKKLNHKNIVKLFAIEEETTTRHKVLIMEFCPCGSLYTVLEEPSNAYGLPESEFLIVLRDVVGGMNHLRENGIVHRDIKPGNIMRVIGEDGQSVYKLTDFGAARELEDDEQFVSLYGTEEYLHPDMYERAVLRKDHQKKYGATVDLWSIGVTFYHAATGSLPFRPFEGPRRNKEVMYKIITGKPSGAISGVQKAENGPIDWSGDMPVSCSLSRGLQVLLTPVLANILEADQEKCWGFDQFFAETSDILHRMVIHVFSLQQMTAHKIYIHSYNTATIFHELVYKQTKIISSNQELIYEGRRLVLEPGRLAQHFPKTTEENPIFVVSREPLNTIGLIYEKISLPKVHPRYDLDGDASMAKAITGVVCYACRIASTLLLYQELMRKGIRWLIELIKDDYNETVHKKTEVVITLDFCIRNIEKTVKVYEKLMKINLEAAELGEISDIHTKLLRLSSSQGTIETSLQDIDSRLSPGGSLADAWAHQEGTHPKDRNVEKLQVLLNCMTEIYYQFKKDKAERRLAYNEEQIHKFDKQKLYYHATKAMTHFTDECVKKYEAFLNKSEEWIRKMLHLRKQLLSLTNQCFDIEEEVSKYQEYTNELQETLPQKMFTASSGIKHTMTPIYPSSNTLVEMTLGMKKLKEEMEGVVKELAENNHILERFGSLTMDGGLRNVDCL
How it was run: as §1

LYN B = molecular target: T3, LYN B (Homo sapiens, UniProt P07948)
T3 construct: purchased Thermo Fisher Scientific
How it was run: as §1

[1] = molecular target: T4, CSNK1E (CK1 epsilon) R178C (Homo sapiens, UniProt P49674, R178C)
T4 construct: purchased Thermo Fisher Scientific
T4 sequence (P49674 1-416 R178C): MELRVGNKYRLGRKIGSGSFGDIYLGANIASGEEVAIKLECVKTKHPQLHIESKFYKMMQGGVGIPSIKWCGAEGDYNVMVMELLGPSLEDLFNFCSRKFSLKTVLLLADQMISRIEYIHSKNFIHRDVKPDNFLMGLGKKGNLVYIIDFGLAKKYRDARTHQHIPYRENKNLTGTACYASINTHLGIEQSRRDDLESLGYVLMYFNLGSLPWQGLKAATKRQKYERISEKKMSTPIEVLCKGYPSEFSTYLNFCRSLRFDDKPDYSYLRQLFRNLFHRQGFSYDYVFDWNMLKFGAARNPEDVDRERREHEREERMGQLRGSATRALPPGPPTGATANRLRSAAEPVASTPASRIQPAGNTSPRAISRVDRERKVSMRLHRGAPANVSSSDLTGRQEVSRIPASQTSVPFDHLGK
How it was run: as §1

SPHK2 = molecular target: T5, SPHK2 (Homo sapiens, UniProt Q9NRA0)
T5 construct: purchased Thermo Fisher Scientific
T5 sequence (Q9NRA0 1-654): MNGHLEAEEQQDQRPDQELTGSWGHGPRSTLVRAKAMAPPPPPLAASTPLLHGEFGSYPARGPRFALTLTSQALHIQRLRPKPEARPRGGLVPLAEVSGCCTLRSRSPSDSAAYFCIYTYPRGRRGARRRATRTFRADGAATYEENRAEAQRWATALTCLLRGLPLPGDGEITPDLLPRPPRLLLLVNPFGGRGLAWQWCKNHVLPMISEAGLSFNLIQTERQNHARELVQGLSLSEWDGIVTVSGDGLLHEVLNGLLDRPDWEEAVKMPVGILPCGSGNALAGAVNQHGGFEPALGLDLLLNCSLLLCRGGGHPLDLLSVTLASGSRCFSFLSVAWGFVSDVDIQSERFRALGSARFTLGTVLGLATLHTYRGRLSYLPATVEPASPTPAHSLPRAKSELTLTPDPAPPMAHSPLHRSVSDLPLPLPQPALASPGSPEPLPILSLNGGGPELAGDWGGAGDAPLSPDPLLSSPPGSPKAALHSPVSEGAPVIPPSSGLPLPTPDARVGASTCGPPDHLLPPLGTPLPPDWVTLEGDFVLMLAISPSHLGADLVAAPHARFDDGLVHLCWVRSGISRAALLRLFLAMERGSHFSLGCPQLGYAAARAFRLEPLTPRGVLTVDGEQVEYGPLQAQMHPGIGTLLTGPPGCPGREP
How it was run: as §1

CAMK1 (CaMK1) = molecular target: T6, CAMK1 (CaMK1) (Homo sapiens, UniProt Q14012)
T6 construct: purchased Thermo Fisher Scientific
How it was run: as §1

KIT T670I = molecular target: T7, KIT T670I (Homo sapiens, UniProt P10721, T670I)
T7 construct: purchased Thermo Fisher Scientific
How it was run: as §1

T1 sequence (P32298 whole entry): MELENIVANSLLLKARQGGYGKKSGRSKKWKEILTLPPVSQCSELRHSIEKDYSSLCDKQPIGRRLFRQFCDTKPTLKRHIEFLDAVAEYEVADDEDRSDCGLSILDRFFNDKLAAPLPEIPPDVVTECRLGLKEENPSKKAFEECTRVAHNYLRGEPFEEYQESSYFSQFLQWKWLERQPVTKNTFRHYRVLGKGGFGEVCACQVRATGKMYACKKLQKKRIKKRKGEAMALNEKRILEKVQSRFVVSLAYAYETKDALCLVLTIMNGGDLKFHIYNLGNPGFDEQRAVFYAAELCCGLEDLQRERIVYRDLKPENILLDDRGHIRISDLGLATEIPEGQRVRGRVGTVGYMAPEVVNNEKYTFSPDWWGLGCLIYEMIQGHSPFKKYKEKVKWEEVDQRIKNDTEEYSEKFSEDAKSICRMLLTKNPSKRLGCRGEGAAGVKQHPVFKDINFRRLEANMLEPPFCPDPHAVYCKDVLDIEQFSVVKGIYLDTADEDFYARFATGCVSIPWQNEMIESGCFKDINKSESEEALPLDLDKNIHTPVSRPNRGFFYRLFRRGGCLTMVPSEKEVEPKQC
T7 sequence (P10721 26-976 T670I): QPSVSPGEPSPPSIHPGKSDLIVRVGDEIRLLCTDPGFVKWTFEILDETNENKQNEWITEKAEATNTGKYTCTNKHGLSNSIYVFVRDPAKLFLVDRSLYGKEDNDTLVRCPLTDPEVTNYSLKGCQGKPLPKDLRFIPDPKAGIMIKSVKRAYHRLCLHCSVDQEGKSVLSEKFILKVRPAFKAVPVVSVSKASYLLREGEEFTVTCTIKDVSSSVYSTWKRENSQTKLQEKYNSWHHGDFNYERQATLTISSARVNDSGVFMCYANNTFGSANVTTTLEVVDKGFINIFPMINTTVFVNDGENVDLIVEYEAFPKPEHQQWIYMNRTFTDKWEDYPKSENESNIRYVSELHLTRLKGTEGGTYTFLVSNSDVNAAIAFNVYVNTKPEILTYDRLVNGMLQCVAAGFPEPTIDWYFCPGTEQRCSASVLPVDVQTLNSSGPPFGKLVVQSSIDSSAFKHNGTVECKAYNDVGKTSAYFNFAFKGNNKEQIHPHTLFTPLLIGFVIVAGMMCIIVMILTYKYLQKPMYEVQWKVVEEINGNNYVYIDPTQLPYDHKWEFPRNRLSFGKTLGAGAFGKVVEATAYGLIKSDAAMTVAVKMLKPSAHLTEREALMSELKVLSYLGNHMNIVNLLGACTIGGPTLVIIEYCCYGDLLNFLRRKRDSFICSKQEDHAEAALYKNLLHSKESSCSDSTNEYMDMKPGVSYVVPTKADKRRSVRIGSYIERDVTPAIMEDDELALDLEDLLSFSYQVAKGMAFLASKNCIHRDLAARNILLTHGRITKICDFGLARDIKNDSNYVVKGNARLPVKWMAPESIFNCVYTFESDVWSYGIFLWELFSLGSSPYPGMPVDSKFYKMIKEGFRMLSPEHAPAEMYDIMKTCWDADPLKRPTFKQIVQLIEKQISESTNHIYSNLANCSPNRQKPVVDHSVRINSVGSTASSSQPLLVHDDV
T3 sequence (P07948 1-491 isoform P07948-2): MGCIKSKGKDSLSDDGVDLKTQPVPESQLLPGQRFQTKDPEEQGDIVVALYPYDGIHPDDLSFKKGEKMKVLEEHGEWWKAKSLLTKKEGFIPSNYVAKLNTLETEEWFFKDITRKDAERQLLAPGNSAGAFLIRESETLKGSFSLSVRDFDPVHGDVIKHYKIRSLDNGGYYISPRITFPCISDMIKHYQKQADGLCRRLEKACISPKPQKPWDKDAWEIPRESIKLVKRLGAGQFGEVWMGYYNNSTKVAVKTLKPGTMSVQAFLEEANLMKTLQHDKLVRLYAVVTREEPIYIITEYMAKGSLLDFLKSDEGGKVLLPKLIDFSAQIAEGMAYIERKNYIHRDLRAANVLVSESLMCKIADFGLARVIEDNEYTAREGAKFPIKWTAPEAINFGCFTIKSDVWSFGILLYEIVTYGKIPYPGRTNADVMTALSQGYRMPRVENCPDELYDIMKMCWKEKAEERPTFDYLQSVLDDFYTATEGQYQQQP

Work on `COc1ccc2c(c1OC)c(=O)n1c3ccc(O)cc3c3ccnc2c31` [MW01, 5-Hydroxy-10,11-dimethoxy-9H-benzo[c]indolo[3,2,1-ij][1,5]naphthyridin-9-one] yielded an inhibition at 1 µM (GRK4) of 8%, an inhibition at 10 µM (GRK4) of 12% and an inhibition at 1 µM (TBK1) of 8%. For the same compound, the inhibition at 10 µM (TBK1) was 17%, the inhibition at 1 µM (LYN B) was 6% and the inhibition at 10 µM (LYN B) was 23%. The inhibition at 1 µM [1] was 23%, the inhibition at 10 µM [1] was 64% and the inhibition at 1 µM (SPHK2) was -16%. The inhibition at 10 µM (SPHK2) was -8%, the inhibition at 1 µM (CAMK1 (CaMK1)) was -12% and the inhibition at 10 µM (CAMK1 (CaMK1)) was -2%. The inhibition at 1 µM (KIT T670I) was 1% and the inhibition at 10 µM (KIT T670I) was 13%.

In the case of `COc1ccc2cc3c(N)nn(C(=O)c4cccc(N(C)C)c4)c3nc2c1` [MW05, (3-Amino-7-methoxypyrazolo[3,4-b]quinolin-1-yl)-[3-(dimethylamino)phenyl]methanone], the inhibition at 1 µM (GRK4) is reported as -1%, the inhibition at 10 µM (GRK4) is reported as 2% and the inhibition at 1 µM (TBK1) is reported as 11%. It also gave an inhibition at 10 µM (TBK1) of -8%, an inhibition at 1 µM (LYN B) of 6% and an inhibition at 10 µM (LYN B) of 0%. For the same compound, the inhibition at 1 µM [1] was 0%, the inhibition at 10 µM [1] was 6% and the inhibition at 1 µM (SPHK2) was -7%. The inhibition at 10 µM (SPHK2) was -4%, the inhibition at 1 µM (CAMK1 (CaMK1)) was -11% and the inhibition at 10 µM (CAMK1 (CaMK1)) was -5%. It also gave an inhibition at 1 µM (KIT T670I) of -1% and an inhibition at 10 µM (KIT T670I) of -13%.
